The values that follow are results of earlier work, collected in US20200188326A1, “COMPOSITIONS AND METHODS OF TREATMENT FOR MVID AND RELATED DISEASES” (Vanessa Research, Inc., priority 2015, published 2020).

This series relates to SLC26A3 exchanger. The conditions noted are these: in the intestine.

As to Vitamin A, the “upregulation of the expression of SLC26A3 exchanger” value is “up to 4 fold”.
